Results: patent US4689326A, “Process for controlling hyperlipidemia” (Research Corporation, priority 1985, dated 1987)
Read-outs that look alike come from different tables or passages of the source.

Columns and labels:
[1] = test system: serum triglycerides; assay: Testing of Normal Mice: serum triglycerides (BioDynamics kit), Example 7; type: in vivo, CF1 male mice; settings: Mus musculus, 384 h; 20 mg/kg/day ip, day 16, ± SD
Method: Suspensions of Compounds Nos. 1-9 were prepared wherein the compounds were suspended in an aqueous 1% carboxymethylcelluose solution, homogenized and administered to CF1 male mice, each weighing approximately 25 grams, intraperitoneally on a daily basis for 16 days. The dosage was, with the exception of one compound, 20 milligrams of the active compound per kilogram of mouse weight per day. On days 9 and 16 blood was obtained by tail vein bleeding. The blood serum was separated by centrifugation for three minutes. Serum cholesterol levels were determined by a modification of the Liebermann-Burchard reaction. Serum was also collected on day 16 and the triglycerides content was determined by a commercial kit, BioDynamics/bnc Single Vile Colorimetric Method 348201. Each compound was tested on a group of six mice.
In addition to the above-described treated mice, untreated control groups of six mice were similarly tested on days 9 and 14 or 16 to determine their serum cholesterol and triglycerides blood levels. Table 5 reports the percent control, based on the serum cholesterol and serum triglyceride levels of the treated mice compared to the untreated controls. Table 5 also includes the standard deviation indicating the level of confidence of these numbers.
Example 7 was repeated substituting clofibrate, a compound used in the prior art to lower serum cholesterol and serum triglyceride levels. The clofibrate was administered as a suspension in an aqueous 1% solution of carboxymethylcellulose. However, unlike the compounds of the present invention which were administered at a dosage of 20 mg/kg day, ip, this compound was administered at the elevated concentration of 150 mg/kg day, ip.

[2] = molecular target: T1, ATP Dependent Citrate Lyase (Mus musculus, UniProt Q91V92); assay: In vitro enzyme activity, liver homogenate: ATP dependent citrate lyase; type: biochemical, CF1 male mouse; settings: ± SD, N = 6, read-out: Percent Control, in vitro enzyme activity
T1 construct: 10% homogenates of CF1 male mouse liver; from tissue; host or cells: CF1 male mouse liver, 10% homogenate
T1 sequence (Q91V92 1-1091): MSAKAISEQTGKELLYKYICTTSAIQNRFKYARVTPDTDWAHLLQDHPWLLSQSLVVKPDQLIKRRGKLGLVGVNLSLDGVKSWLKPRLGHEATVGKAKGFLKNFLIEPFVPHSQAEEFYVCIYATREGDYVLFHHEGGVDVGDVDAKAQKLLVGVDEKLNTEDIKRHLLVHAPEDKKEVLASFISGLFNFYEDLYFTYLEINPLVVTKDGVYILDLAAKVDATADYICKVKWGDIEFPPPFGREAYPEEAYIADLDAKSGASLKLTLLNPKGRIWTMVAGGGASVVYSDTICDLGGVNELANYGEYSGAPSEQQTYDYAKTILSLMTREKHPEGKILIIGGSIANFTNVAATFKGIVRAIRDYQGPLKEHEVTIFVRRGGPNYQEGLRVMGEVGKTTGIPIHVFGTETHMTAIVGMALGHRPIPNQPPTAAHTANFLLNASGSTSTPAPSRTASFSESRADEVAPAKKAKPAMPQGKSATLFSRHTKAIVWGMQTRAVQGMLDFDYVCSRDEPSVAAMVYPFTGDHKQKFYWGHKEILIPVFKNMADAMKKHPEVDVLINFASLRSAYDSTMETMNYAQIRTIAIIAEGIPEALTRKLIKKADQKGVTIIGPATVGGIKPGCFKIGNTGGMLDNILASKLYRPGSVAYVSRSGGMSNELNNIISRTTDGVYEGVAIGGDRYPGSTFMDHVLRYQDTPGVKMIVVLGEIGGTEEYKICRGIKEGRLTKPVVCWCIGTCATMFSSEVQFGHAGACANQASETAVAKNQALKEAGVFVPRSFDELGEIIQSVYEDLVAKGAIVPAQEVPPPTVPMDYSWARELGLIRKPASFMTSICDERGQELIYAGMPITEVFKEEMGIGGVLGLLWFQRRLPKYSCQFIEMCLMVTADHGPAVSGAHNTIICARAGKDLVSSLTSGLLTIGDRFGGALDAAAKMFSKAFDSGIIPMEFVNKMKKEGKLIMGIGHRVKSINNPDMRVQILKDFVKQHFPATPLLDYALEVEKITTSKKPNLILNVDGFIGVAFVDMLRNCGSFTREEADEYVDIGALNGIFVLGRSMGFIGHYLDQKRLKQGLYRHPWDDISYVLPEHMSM
Method: (§1) In vitro enzymatic studies were undertaken using 10% homogenates of CF1 male mouse liver with […] of compound 3,4,5,6-dibenzohomopiperidine. In addition, in vivo enzymatic studies were performed, again using 10% liver homogenates (prepared in 0.25 M sucrose plus 0.001 M (ethylenedinitrilo)-tetraacetic acid, ph 7.25 from CF1 male mice obtained after administering 3,4,5,6-dibenzohomopiperidine for 16 days at a concentration ranging from 10 to 60 mg/kg/day, intraperitoneally.
(§2) The following enzyme activities were determined by following standard literature procedures: acetyl coenzyme synthetase; adenosine triphosphate dependent citrate lyase; mitochondrial citrate exchange; cholesterol/7 hydroxylase; 3-hydroxy-3-methyl-glutaryl coenzyme A reductase; acetyl coenzyme A carboxylase activity; fatty acid synthetase activity; sn-glycerol-3-phosphate acyl transferase activity; phosphatidate phosphohydrolase activity; cholesterol acyl transferase; and heparin activated hepatic lypoprotein lipase. Protein was determined for all enzyme assays by the Lowry et al. technique (J. Biol. Chem, 193, 265 (1951)).

[3] = molecular target: T2, Fatty Acid Synthetase (Mus musculus, UniProt P19096); assay: In vitro enzyme activity, liver homogenate: fatty acid synthetase; type: biochemical, CF1 male mouse; settings: ± SD, N = 6, read-out: Percent Control, in vitro enzyme activity
T2 construct: 10% homogenates of CF1 male mouse liver; from tissue; host or cells: CF1 male mouse liver, 10% homogenate
T2 sequence (P19096 whole entry): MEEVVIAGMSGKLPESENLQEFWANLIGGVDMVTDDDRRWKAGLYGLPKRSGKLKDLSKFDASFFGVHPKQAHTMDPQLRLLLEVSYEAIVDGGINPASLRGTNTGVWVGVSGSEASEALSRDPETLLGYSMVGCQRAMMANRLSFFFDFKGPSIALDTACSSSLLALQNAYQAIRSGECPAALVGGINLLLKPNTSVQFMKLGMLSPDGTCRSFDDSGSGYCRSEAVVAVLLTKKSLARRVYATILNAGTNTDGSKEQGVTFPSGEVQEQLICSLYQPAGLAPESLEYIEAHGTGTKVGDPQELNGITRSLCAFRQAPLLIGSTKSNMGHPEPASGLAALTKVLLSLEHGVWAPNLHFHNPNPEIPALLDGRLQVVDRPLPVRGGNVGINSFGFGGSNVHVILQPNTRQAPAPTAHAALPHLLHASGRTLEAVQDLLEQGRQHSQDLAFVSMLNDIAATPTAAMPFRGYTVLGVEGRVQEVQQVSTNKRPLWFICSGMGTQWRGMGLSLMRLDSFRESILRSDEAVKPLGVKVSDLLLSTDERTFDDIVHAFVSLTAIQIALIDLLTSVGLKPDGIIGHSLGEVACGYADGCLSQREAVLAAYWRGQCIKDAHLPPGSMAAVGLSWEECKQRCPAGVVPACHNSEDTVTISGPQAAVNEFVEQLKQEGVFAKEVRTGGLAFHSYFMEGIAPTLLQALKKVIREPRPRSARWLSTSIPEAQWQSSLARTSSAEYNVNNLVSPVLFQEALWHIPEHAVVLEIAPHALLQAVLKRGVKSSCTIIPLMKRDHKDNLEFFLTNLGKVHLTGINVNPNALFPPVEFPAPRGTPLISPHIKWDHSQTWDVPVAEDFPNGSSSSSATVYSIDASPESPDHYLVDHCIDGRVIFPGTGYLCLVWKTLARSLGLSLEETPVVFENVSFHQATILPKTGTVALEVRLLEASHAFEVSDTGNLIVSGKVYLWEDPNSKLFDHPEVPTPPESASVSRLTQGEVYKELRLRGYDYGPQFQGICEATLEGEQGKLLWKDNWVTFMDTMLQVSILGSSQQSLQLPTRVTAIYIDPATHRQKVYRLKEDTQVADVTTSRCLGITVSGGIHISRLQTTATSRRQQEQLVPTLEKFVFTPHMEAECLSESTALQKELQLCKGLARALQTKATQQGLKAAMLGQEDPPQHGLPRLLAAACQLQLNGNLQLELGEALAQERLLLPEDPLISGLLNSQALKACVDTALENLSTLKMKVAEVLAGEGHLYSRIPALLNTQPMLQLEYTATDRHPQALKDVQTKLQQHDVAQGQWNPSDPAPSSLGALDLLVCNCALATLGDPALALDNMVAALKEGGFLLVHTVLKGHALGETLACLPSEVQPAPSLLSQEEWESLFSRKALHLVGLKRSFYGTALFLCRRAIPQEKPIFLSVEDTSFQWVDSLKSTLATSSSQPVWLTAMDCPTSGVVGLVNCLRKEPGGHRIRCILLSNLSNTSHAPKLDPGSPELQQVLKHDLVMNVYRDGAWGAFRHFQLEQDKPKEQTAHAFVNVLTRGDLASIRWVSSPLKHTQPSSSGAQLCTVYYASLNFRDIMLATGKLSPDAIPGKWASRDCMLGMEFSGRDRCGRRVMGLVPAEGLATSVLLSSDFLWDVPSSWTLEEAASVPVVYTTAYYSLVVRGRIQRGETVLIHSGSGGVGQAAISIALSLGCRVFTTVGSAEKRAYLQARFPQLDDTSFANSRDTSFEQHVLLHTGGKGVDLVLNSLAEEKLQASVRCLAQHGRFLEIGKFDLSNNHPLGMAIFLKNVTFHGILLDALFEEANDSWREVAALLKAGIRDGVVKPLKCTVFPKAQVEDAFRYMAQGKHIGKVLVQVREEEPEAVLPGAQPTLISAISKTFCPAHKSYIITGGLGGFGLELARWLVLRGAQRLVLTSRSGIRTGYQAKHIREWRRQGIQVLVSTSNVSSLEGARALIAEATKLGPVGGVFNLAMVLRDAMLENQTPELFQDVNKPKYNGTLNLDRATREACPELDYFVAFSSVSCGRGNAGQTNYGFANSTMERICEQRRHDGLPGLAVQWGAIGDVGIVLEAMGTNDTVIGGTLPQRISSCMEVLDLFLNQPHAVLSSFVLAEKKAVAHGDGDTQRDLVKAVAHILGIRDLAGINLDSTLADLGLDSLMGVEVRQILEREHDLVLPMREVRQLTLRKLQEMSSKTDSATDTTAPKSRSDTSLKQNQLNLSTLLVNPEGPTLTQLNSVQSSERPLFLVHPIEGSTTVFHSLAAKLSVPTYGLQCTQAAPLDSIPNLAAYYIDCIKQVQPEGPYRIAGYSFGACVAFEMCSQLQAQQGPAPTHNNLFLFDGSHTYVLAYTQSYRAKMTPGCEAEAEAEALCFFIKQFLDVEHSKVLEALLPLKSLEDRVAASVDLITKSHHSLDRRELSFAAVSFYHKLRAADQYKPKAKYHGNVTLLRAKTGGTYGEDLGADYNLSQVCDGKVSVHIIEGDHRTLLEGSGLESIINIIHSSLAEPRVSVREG
Method: as §1, §2

[4] = test system: Acetyl CoA Carboxylase; assay: In vivo enzyme activity, liver of treated mice: acetyl CoA carboxylase; set-up: species or system CF1 male mice; settings: 16 days, ± SD
Method: as §1, §2

[5] = test system: Chylomicrons; assay: Lipoprotein fractions in Rats, Example 11: chylomicrons; type: in vivo, Sprague Dawley male rats; settings: oral 20 mg/kg/day, fourteen days, ± SD
Method: A group of six Sprague Dawley male rats were treated with 20 mg/kg/day of 3,4,5,6-dibenzohomopiperidine. The treatment was applied orally. An equal number of Sprague Dawley male rats, having approximately the same weight, were utilized as an untreated control. At the end of fourteen days the control and treated rats were sacrificed. Blood was collected from the abdominal aorta and lipoprotein fractions were obtained by the method of Hatch and Lees [Adv. Lipid Rees., 6, 1 (1968)] and Havel et al. [J. Clin Invest., 34, 1345 (1955)]. Each of the fractions were analyzed for cholesterol, triglycerides, neutral lipids, phospholipids and protein levels.

[6] = test system: serum cholesterol; assay: Testing of Normal Mice: serum cholesterol (modified Liebermann-Burchard), Example 7; type: in vivo, CF1 male mice; settings: Mus musculus; for response vs control in vivo at 10 mg/kg: 10 mg/kg/day ip; for response vs control in vivo at 40 mg/kg: 40 mg/kg/day ip; for response vs control in vivo at 60 mg/kg: 60 mg/kg/day ip
[7] = 216 h, day 9, ± SD, read-out: Serum Cholesterol Control, % Day 9
[8] = 384 h, day 16, ± SD, read-out: Serum Cholesterol Control, % Day 16

c1ccc2c(c1)CNCc1ccccc1-2 [Compound 3, 3,4,5,6-dibenzohomopiperidine]
response vs control in vivo at 20 mg/kg [1]: 49 ± 5%
remaining activity at 50 µM ([2]; 50 μM): 87 ± 5%
remaining activity at 100 µM ([2]; 100 μM): 38 ± 3%
remaining activity at 200 µM ([2]; 200 μM): 33 ± 4%
remaining activity at 50 µM ([3]; 50 μM): 91 ± 7%
remaining activity at 100 µM ([3]; 100 μM): 92 ± 8%
remaining activity at 200 µM ([3]; 200 μM): 101 ± 9%
Percent Control, in vivo enzyme activity ([4]; 10 mg/kg/day ip): 54 ± 6%
Percent Control, in vivo enzyme activity ([4]; 20 mg/kg/day ip): 57 ± 7%
Percent Control, in vivo enzyme activity ([4]; 40 mg/kg/day ip): 47 ± 5%
Percent Control, in vivo enzyme activity ([4]; 60 mg/kg/day ip): 60 ± 4%
Cholesterol, concentration as a function of control [5]: 77 ± 6%
Neutral Lipids, concentration as a function of control [5]: 69 ± 7%
Phospholipids, concentration as a function of control [5]: 65 ± 5%
Protein, concentration as a function of control [5]: 106 ± 6%
Triglycerides, concentration as a function of control [5]: 69 ± 6%
response vs control in vivo at 10 mg/kg [6, 7]: 61 ± 5%
response vs control in vivo at 40 mg/kg [6, 7]: 67 ± 6%
response vs control in vivo at 60 mg/kg [6, 7]: 69 ± 5%
response vs control in vivo at 10 mg/kg [6, 8]: 50 ± 5%
response vs control in vivo at 40 mg/kg [6, 8]: 54 ± 4%
response vs control in vivo at 60 mg/kg [6, 8]: 51 ± 4%
